Data reported in patent US6215002A, “Pyrrolopyrrolone derivatives as inhibitors of neutrophil elastase” (priority 1996, dated 2001).
Where a name gives a salt, the structure may show the parent alone.

Key:
[1] = test system: Intracellular elastase; assay: Oral in vivo model using IL-8 induced lung infiltrates for the assessment of intracellular elastase inhibition (hamster test); settings: effective dose of less than 40 mg/kg, IL-8 intratracheal
Protocol: An Oral in vivo Model Using IL-8 Induced Lung Infiltrates For the Assessment of Intracellular Elastase Inhibition
Adult hamsters (100-150 g) are randomised into groups (n=4) and fasted overnight. Under gaseous anaesthetic (3% isofluorane) animals are dosed orally with 1 mL/100 g water as vehicle or containing predissolved compounds. Either at the same time, or subsequently under anaesthetic, animals are dosed intratracheally with 1 ug recombinant human IL-8 in 100 uL sterile saline. Six hours after IL-8 dosing animals are sacrificed using intrapertoneal pentobarbitone. The lungs are ravaged with 2×2.5 mL sterile saline and femurs are removed by dissection.
Intracellular elastase is prepared from neutrophils collected by lavage and from femoral bone marrow. This is achieved by sonication of the neutrophils and centrifugation to yield intracellular granules. These are disrupted by freeze/thawing and sonication. Elastase and myeloperoxidase assays are then performed on these samples to assess the efficacy of the compounds and to normalise for neutrophil recovery.

[2] = target: T1, human neutrophil elastase (Homo sapiens, UniProt P08246); assay: In vitro assay of human neutrophil elastase (HNE); type: biochemical; settings: 118 nM purified human neutrophil elastase, pH 8.6, 15 min incubation at 30° C., MeO-succinyl-alanyl-alanyl-prolyl-valyl-p-nitroanilide substrate; read-out: HNE IC50
T1 sequence (P08246 30-267): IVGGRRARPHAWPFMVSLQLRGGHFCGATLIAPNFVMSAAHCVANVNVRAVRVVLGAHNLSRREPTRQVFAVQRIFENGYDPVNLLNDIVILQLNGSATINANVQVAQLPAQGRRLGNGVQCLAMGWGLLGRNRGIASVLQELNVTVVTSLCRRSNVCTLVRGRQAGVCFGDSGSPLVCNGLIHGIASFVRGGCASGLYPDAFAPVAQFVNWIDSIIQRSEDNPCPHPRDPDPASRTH
Outline: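 Residual activity was taken as the 10 min rate of absorbance rise at 405 nm after adding 0.6 mM MeO-succinyl-AAPV-p-nitroanilide. Curve fitting of activity against concentration gave IC50.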

SMILES	duration of effect [1]	IC50 [2] [µM]
CCC[C@H]1C(=O)N(S(C)(=O)=O)[C@H]2CCN(C(=O)/C=C/CN3CCCCC3)[C@H]12 (relative stereo) [Example 57, rel-(3R,3aR,6aS)-1-Methanesulfonyl-4-(4-piperidin-1-yl-but-2-(E)-enoyl-3-propyl-hexahydro-pyrrolo[3,2-b]pyrrol-2-one hydrochloride]	at least 6 hours	0.027
CC(C)[C@H]1C(=O)N(S(C)(=O)=O)[C@H]2CCN(C(=O)c3cccc(CNC4CC4)c3)[C@H]12.Cl (relative stereo) [Example 190, rel-(3R,3aR,6aS)-4-(3-Cyclopropylaminomethyl-benzoyl)-3-isopropyl-1-methanesulfonyl-hexahydro-pyrrolo[3,2-b]pyrrol-2-one hydrochloride]	at least 6 hours	0.024
CC(C)[C@H]1C(=O)N(S(C)(=O)=O)[C@H]2CCN(C(=O)c3cccc(CN4CCN(C)CC4)c3)[C@H]12.Cl.Cl (relative stereo) [Example 189, rel-(3R,3aR,6aS)-3-Isopropyl-1-methanesulfonyl-4-[3-(4-methyl-piperazin-1-ylmethyl)-benzoyl]-hexahydro-pyrrolo[3,2-b]pyrrol-2-one dihydrochloride]	at least 6 hours	0.062
CCC[C@H]1C(=O)N(S(C)(=O)=O)[C@H]2CCN(C(=O)CCCCCN3CCOCC3)[C@H]12.O=C(O)C(O)C(O)C(=O)O (relative stereo) [Example 58, rel-(3R,3aR,6aS)-1-Methanesulfonyl-4-(6-morpholin-4-yl-hexanoyl)-3-propylhexahydro-pyrrolo[3,2-b]pyrrol-2-one 2,3-dihydroxysuccinate]	at least 6 hours	0.072
CC(C)[C@H]1C(=O)N(S(C)(=O)=O)[C@H]2CCN(C(=O)c3cccc(CN(C)C)c3)[C@H]12 (relative stereo) [Example 253, rel-(3R3aR,6aS)-4-(3-Dimethylaminomethyl-benzoyl)-3-isopropyl-1-methanesulfonyl-hexahydro-pyrrolo[3,2-b]pyrrol-2-one hydrochloride]	at least 6 hours	0.076
CCCN(C)C/C=C/C(=O)N1CC[C@H]2[C@H]1[C@@H](C(C)C)C(=O)N2S(C)(=O)=O.Cl (relative stereo) [Example 141, rel-(3R,3aR,6aS)-3-Isopropyl-1-methanesulfonyl-4-[4-(methyl-propyl-amino)-but-2E-enoyl]-hexahydro-pyrrolo[3,2-b]pyrrol-2-one hydrochloride]	at least 6 hours	0.176
CC(C)[C@H]1C(=O)N(S(C)(=O)=O)[C@H]2CCN(C(=O)c3ccc(CN4CCCCC4)o3)[C@H]12.Cl (relative stereo) [Example 250, rel-(3R,3aR,6aS)-3-Isopropyl-1-methanesulfonyl-4-(5-piperidin-1-ylmethyl-furan-2-carbonyl)-hexahydro-pyrrolo[3,2-b]pyrrol-2-one hydrochloride]	at least 6 hours	0.021
CC(C)[C@H]1C(=O)N(S(C)(=O)=O)[C@H]2CCN(C(=O)c3ccc(CNC4CC4)o3)[C@H]12 (relative stereo) [Example 252, rel-(3R,3aR,6aS)-4-(5-Cyclolpropylaminomethyl-furan-2-carbonyl)-3-isopropyl-1-methanesulfonyl-hexahydro-pyrrolo[3,2-b]pyrrol-2-one hydrochloride]	at least 6 hours	0.014
CCC[C@H]1C(=O)N(S(C)(=O)=O)[C@H]2CCN(C(=O)c3ccc(CN4CCCCC4)cc3)[C@H]12 (relative stereo) [Example 62, rel-(3R,3aR,6aS)-1-Methanesulfonyl-1-4-(4-piperidin-1-ylmethyl-benzoyl)-3-propyl-hexahydro-pyrrolo[3,2-b]pyrrol-2-one]	at least 6 hours	0.01
CCC[C@H]1C(=O)N(S(=O)(=O)c2ccc3ccccc3c2)[C@H]2CCN(C(=O)CCN3CCCCC3)[C@H]12 (relative stereo) [Example 2, rel-(3R,3aR,6aS)-1-(Naphthalene-2-sulfonyl)-4-(3-piperidin-1-yl-propionyl)-3-propyl-hexahydro-pyrrolo[3,2-b]pyrrol-2-one hydrochloride]	at least 6 hours	0.137
CC(C)[C@H]1C(=O)N(S(C)(=O)=O)[C@H]2CCN(C(=O)/C=C/CN(C)CC(N)=O)[C@H]12 (relative stereo) [Example 150, rel-2-{[(4-(6R-Isopropyl-4-methanesulfonyl-5-oxo-hexahydro-(3aS,6aR)-pyrro[3,2-b]pyrrol-1-yl)-4-oxo-but-2E-enyl]-methyl-amino}-acetamide hydrochloride]	at least 6 hours	0.05
CC(C)[C@H]1C(=O)N(S(C)(=O)=O)[C@H]2CCN(C(=O)/C=C/CN3CCC(C(N)=O)CC3)[C@H]12.Cl (relative stereo) [Example 152, rel-1-[4-(6R-Isopropyl-4-methanesulfonyl-5-oxo-hexahydro-(3aS,6aR)-pyrrolo[3,2-b]pyrrol-1-yl)-4-oxo-but-2E-enyl]-piperidine-4-carboxylic acid amide hydrochloride]	at least 6 hours	0.021
COC(=O)[C@@H]1CCCN1C/C=C/C(=O)N1CC[C@H]2[C@H]1[C@@H](C(C)C)C(=O)N2S(C)(=O)=O (relative stereo) [Example 140, 1-[4-(rel-6R-Isopropyl-4-methanesulfonyl-5-oxo-hexahydro-(3aS,6aR)-pyrrolo[3,2-b]pyrrol-1-yl)-4-oxo-but-2E-enyl]-pyrrolidine-2S-carboxylic acid methyl ester hydrochloride]	at least 6 hours	0.036
CC(C)[C@H]1C(=O)N(S(C)(=O)=O)[C@H]2CCN(C(=O)/C=C/CN3CCCCCC3)[C@H]12 (relative stereo) [Example 136, hydrochloride]	at least 6 hours	0.022
CC(C)[C@H]1C(=O)N(S(C)(=O)=O)[C@H]2CCN(C(=O)c3ccc(CN4C(C)CCCC4C)cc3)[C@H]12.Cl (relative stereo) [Example 200, rel-(3R,3aR,6aS)-4-[4-(2,6-Dimethyl-piperidin-1-ylmethyl)-benzoyl]-3-isopropyl-1-methanesulfonyl-hexahydropyrrolo[3,2-b]pyrrol-2-one hydrochloride]	at least 6 hours	0.053
CCN(CC)Cc1ccc(C(=O)N2CC[C@H]3[C@H]2[C@@H](C(C)C)C(=O)N3S(C)(=O)=O)cc1.Cl (relative stereo) [Example 182, rel-(3R,3aR,6aS)-4-(4-Diethylaminomethyl-benzoyl)-3-isopropyl-1-methanesulfonyl-hexahydro-pyrrolo[3,2-b]pyrrol-2-one hydrochloride]	at least 6 hours	0.043
CCC[C@@H]1C(=O)N(S(C)(=O)=O)[C@@H]2CCN(C(=O)CCN3CCCCC3)[C@@H]12.Cl [Example 118, (3S,3aS,6aR)-1-Methanesulfonyl-4-(3-piperidin-1-yl-propionyl)-3-propyl-hexahydro-pyrrolo[3,2-b]pyrrol-2-one hydrochloride]	at least 6 hours	0.073
CON(C)C/C=C/C(=O)N1CC[C@H]2[C@H]1[C@@H](C(C)C)C(=O)N2S(C)(=O)=O (relative stereo) [Example 147, rel-(3R,3aR,6aS)-3-Isopropyl-1-methanesulfonyl-4-[4-(methoxy-methyl-amino)-but-E2-enoyl]-hexahydro-pyrrolo[3,2-b]pyrrol-2-one hydrochloride]	at least 6 hours	0.096
CCC[C@H]1C(=O)N(S(C)(=O)=O)[C@H]2CCN(C(=O)CCCCCN3CCCCCC3)[C@H]12 (relative stereo) [Example 59, hydrochloride]	at least 6 hours	0.039
CC(=O)N1CCN(C/C=C/C(=O)N2CC[C@H]3[C@H]2[C@@H](C(C)C)C(=O)N3S(C)(=O)=O)CC1.Cl (relative stereo) [Example 138, rel-(3R,3aR,6aS)-4-[4-(4-Acetyl-piperazin-1-yl)-but-2E-enoyl]-3-isopropyl-1-methanesulfonyl-hexahydro-pyrrolo[3,2-b]pyrrol-2-one hydrochloride]	at least 6 hours	0.042
COC(=O)[C@@H]1CCCN1Cc1ccc(C(=O)N2CC[C@H]3[C@H]2[C@@H](C(C)C)C(=O)N3S(C)(=O)=O)cc1 (relative stereo) [Example 183, 1-[4-(rel-6R-Isopropyl-4-methanesulfonyl-5-oxo-hexahydro-(3aS,6aR)-pyrrolo[3,2-b]pyrrole-1-carbonyl)-benzyl]-pyrrolidine-2S-carboxylic acid methyl ester hydrochloride]	at least 6 hours	0.046
